Test results as given in paper PMC13243568, “Massive barcode-free chemical screenings enable the discovery of bioactive macrocycles with passive membrane permeability” (Nature Communications, 2026).
Entries after “also recorded” stand apart in the source; their conditions may differ. Starred links: 1 amine or outer side, 2 acyl side, 3 side chain; linkers in the order of their positions; H or OH if unused. Positions of bridges follow the written chain, without caps; N, C: chain ends. Non-standard residues stand in square brackets, D forms with d. Residues, ends and D or L forms follow the SMILES beside them. *: point of attachment. Phenylacetyl(3,4,5-triOMe) = COc1cc(CC(=O)*)cc(OC)c1OC; Biotin = O=C1N[C@H]2[C@H](CS[C@H]2CCCCC(=O)*)N1; Benzoyl(4-SO2NH2) = NS(=O)(=O)c1ccc(C(=O)*)cc1; Tyr(3-Cl) = N[C@@H](Cc1ccc(O)c(Cl)c1)C(=O)O; X1 = O=C([C@H]1CC[C@@H](N[*:1])C1)[*:2]; oXylylene = c1ccc(C[*:2])c(C[*:1])c1; εLys = N[C@@H](CCCCN[*:1])C(=O)[*:2]

Legend:
[1] = Parallel artificial membrane permeability assay (PAMPA); assay type: in vitro ADME
Protocol: The plate system consisted of a 96-well microwell plate (donor wells) and a 96-well insert containing a PVDF membrane coated with tri-layers of phospholipids (acceptor wells). Permeability was measured from the bottom plate (donor wells) to the top insert (acceptor wells). Cyclic peptide or reference compound solutions were prepared at a concentration of 100 μM in 1xPBS buffer (pH 7.4) containing 1% DMSO, and 300 μl of the resulting solutions was placed into the donor wells of the PAMPA plate. Acceptor wells were prepared by adding 200 μl of PBS buffer (pH 7.4) containing 1% DMSO. The insert was stacked onto the donor plate, and the system was covered with a lid to avoid evaporation. […] Additionally, 3:2 dilutions of the 100 μM cyclic peptide stocks were prepared in 1xPBS buffer (pH 7.4) containing 1% DMSO to yield a sample corresponding to the theoretical equilibrium between donor and acceptor wells. The samples were run on the UPLC–HRMS to measure the cyclic peptide concentration representing maximum permeability. […]
Parallel artificial membrane permeability assay (PAMPA):
Permeability measurements
The insert was then stacked onto the donor […]
concentration of permeated peptides. To establish a reference for maximum permeability, 3:2 […]
the theoretical equilibrium between the donor and acceptor chambers. These equilibrium samples […]
Permeability (%) = [PeptideAcceptor ] (4)
P = VD×VA × −ln (1 − [PeptideAcceptor] ) (5) […]

WDR5-MLL PPI = target: T1, WDR5-MLL PPI (Homo sapiens, UniProt P61964); assay: BLI competition assay, displacement of immobilized MLL peptide 16 from WDR5; assay type: binding; settings: for inhibition of WDR5-MLL interaction, in words: 100 nM inhibitor, MLL immobilized on BLI tips; for displacement of MLL peptide from WDR5: tested at 100 and 50 nM WDR5; for Binding (ratio to control): Figure S11, BLI competition, control = WDR5 without inhibitor
T1 construct: A truncated human WDR5 construct encoding amino acids 22–; SUMO (N); made in house; host or cells: E. coli BL21 (DE3) (WDR5); the peptide was made by chemical synthesis
Protocol: Purified biotinylated competitors were dissolved in the appropriate kinetic buffer and immobilized onto the streptavidin biosensors at 100 nM for 60 s. Sensors were then dipped into the kinetic buffer for 60 s, and the concentration gradient of macrocyclic hit in a constant concentration protein solution for 600 s. Measurements were carried out at 20 °C. […]
was immobilized for 60 sec. at 100 nM. […]
were reincubated and association was measured for 600 sec. […]
Biolayer interferometry (BLI): Biolayer interferometry (BLI) assays were performed in 96 well plates (GreinerBio -One, polypropylene, flat ‐bottom, chimney well) using an Octet R4 system (SATORIUS).
Wells were filled with 200 μL with kinetic buffer, compound solution or protein solution , purifi ed compounds . Proteins were dissolved in the appropriate kinetic buffer specific for each target (CAIX:
Tween -20, 1 mg/mL BSA [0.1% w/v]). […]
Measurements were carried out at 20 °C.
Competition assay: Purified biotinylated competitor were dissolved in appropriate kinetic buffer and immobilized onto the streptavidin biosensors at 100nM for 60s. Sensors were then dipped into kinetic buffer for 60 s and concentration gradient of macrocyclic hit in constant concentration protein solution for 600s. Measurements were carried out at 20 °C.

CAIX = target: T2, CAIX (Homo sapiens, UniProt Q16790); assay: BLI direct binding assay against CAIX; settings: biotinylated hit immobilized on streptavidin sensor, CAIX in solution; curves did not reach saturation; read-out: kinetic KD (BLI)
T2 construct: Anhydrase IX (38-414), His,Avitag (CA9H82E3); His; Avitag (biotinylated); purchased ACROBiosystems CA9H82E3
Protocol: Biolayer interferometry (BLI) assays were performed in 96-well plates (GreinerBio-One, polypropylene, flat-bottom, chimney well) using an Octet R4 system (SATORIUS). Wells were filled with 200 μL of kinetic buffer, compound solution or protein solution, purified compounds. Proteins were dissolved in the appropriate kinetic buffer specific for each target (CAIX: 1× PBS, 0.02% Tween-20, 1 mg/mL BSA [0.1% w/v]; WDR5: 20 mM Tris, 500 mM NaCl, pH 8.0, 0.02% Tween-20, and 1 mg/mL BSA [0.1% w/v]).
Purified biotinylated compounds were dissolved in an appropriate kinetic buffer and immobilized onto the streptavidin biosensor for 60 s. Sensors were then dipped into the kinetic buffer for 60 s, a concentration gradient of protein solution for 300 s and into the kinetic buffer for 300 s. Measurements were carried out at 20 °C.
Table S2: ASMS buffer summary.
B Biotinylated CAIX (1.5 μM) in A Biotinylated WDR5 (1.5 μM) in A […]
μM d-biotin 0.02% Tween-20, 400 μM biotin
D 10% FBS, 1x PBS 20m mM Tris, 500 mM NaCl, pH 8, 10% FBS, E 10 fmol/member library in buffer D 10 fmol/member library in buffer D F 1x PBS 20m mM Tris, 500 mM NaCl, pH 8
G 6M Guanidine HCl, 200 mM phosphate 6M Guanidine HCl, 200 mM phosphate buffer, pH 6.8, 10 mM TCEP HCl buffer, pH 6.8, 10 mM TCEP HCl
Sample preparation after AS: Following the affinity selection, samples were desalted using StageTips. […]

MV-4:11 cells = assay: Cell viability, CellTiter-Glo, MV-4:11; assay type: cell-based; settings: 72 h
Protocol: 5000 HL-60 (DSMZ ACC3), 3000 MV411 (DSMZ ACC554), and 7000 MOLM13 (DSMZ ACC554) cells were plated into an opaque-colored 96-well plate (Greiner Bio-One cat no 655083). […] About 100 μl CellTiter-Glo reagent was added to each well, and the plates were shaken for 5 min at 500 rpm. Luminescent signal was stabilized by incubating the plates for 10 min at RT. Luminescence was measured on the Victor X3 plate reader (Perkin Elmer).
were plated into an opaque colored 96 wells plate (Greiner Bio -one cat no 655083). Cells were plated
no G7570). 100 µl CellTiter-Glo reagent was added to each well and plates were shaken 5 minutes at 500 rpm. Luminescent signal was stabilized by incubating the plates 10 minutes at RT. Luminescence was measured on the Victor X3 plate reader (Perkin Elmer).

[2] = Serum stability assay in 25% human serum; settings: pH 7.4
Protocol: The mixture was vortexed immediately after protein addition. […] After incubating on ice for 1 h, the samples were centrifuged at 10,000×g for 5 min. The supernatant was then injected into the UPLC–HRMS (20 μL) and the AUC of both peptide and IS calculated by analyzing the XIC curve for each exact mass value. For each run and timepoint, the peptide AUC was then normalized to the IS AUC.
vortexed immediately after protein addition. At different time points, a sample was retrieved and the
degradation reaction was quenched by the addition of 20% trichloroacetic acid (w/w) in 1x PBS
After incubating on ice for 1h , the samples were centrifuged at
10,000 rpms for 5 min. The supernatant was then injected into the UPLC -HRMS and the AUC of both
peptide and IS by analyzing the XIC curve for each exact mass value. For each run and timepoint, the peptide AUC was then normalized to the IS AUC . The relative stability values were then plotted using
Half -life times (t 1/2) were
calculated at the intersection of the curve with y=50%.

COc1cc(CC(=O)N[C@H]2CSCc3ccc(cc3)CSCCNC(=O)[C@H](Cc3c[nH]c4ccccc34)NC(=O)[C@H](CCCNC(=N)N)NC(=O)[C@H]3CC[C@H](C3)NC2=O)cc(OC)c1OC [Compound 19Δ]
permeability (PAMPA) ([1]; PAMPA): < 5%

COc1cc(CC(=O)N[C@H]2CSCc3ccccc3CSC[C@@H](C(N)=O)NC(=O)[C@H](Cc3c[nH]c4ccccc34)NC(=O)[C@H](CCCNC(=N)N)NC(=O)[C@H]3CC[C@H](C3)NC2=O)cc(OC)c1OC [Compound 17] ({Phenylacetyl(3,4,5-triOMe)}-C[X1]RWC-NH2; linker 1-5 via oXylylene; C-terminus assumed)
inhibition of WDR5-MLL interaction, in words (WDR5-MLL PPI; WDR5 50 nM): retained strong inhibition potency

N=C(N)NCCC[C@@H]1NC(=O)[C@H](Cc2ccc(O)c(Cl)c2)NC(=O)[C@H](CCCCN)NC(=O)[C@@H](NC(=O)c2ccc(S(N)(=O)=O)cc2)CSSC[C@@H](C(=O)N[C@@H](CCCCN)C(=O)NCCCC[C@H](N)C(=O)NCCCC[C@H](N)C(=O)N[C@@H](CCCCNC(=O)CCCC[C@@H]2SC[C@@H]3NC(=O)N[C@@H]32)C(N)=O)NC1=O [Compound 7] ({Benzoyl(4-SO2NH2)}-CK[Tyr(3-Cl)]RCK[εLys][εLys]K(Biotin)-NH2; disulfide 1-5)
Kd (CAIX): 1 nM

N=C(N)NCCC[C@@H]1NC(=O)[C@H]2CC[C@H](C2)NC(=O)[C@@H](NC(=O)Cc2ccccc2Br)CSCc2ccccc2CSCCNC(=O)[C@H](Cc2c[nH]c3ccccc23)NC1=O [Compound 26]
displacement of MLL peptide from WDR5 (WDR5-MLL PPI): ≥ 50%

COc1cc(CC(=O)N[C@H]2CSCc3ccccc3CSCCNC(=O)[C@H](Cc3c[nH]c4ccccc34)N(C)C(=O)[C@H](CCCNC(=N)N)NC(=O)[C@H]3CC[C@H](C3)NC2=O)cc(OC)c1OC [s7]
passive permeability (PAMPA), in words ([1]; PAMPA): reduced permeability | Binding (ratio to control) (WDR5-MLL PPI): 0.83

COc1cc(CC(=O)N[C@H]2CSCc3ccc(cc3)-c3ccc(cc3)CSCCNC(=O)[C@H](Cc3c[nH]c4ccccc34)NC(=O)[C@H](CCCNC(=N)N)NC(=O)[C@H]3CC[C@H](C3)NC2=O)cc(OC)c1OC [Compound 20Δ]
permeability (PAMPA) ([1]; PAMPA): < 5%

N=C(N)NCCC[C@@H]1NC(=O)[C@H]2CC[C@H](C2)NC(=O)[C@@H](NC(=O)Cc2cc(F)c(F)cc2F)CSCc2ccccc2CSCCNC(=O)[C@H](Cc2c[nH]c3ccccc23)NC1=O [Compound 23]
permeability (PAMPA) ([1]; 100 µM, 18 h incubation, RT): 45% | displacement of MLL peptide from WDR5 (WDR5-MLL PPI): ≥ 50%

COc1cc(CC(=O)N[C@H]2CSCc3cccc(c3)CSCCNC(=O)[C@H](Cc3c[nH]c4ccccc34)NC(=O)[C@H](CCCNC(=N)N)NC(=O)[C@H]3CC[C@H](C3)NC2=O)cc(OC)c1OC [Compound 18Δ]
permeability (PAMPA) ([1]; PAMPA): 11%

COc1cc(CC(=O)N[C@H]2CSCc3ccccc3CSCCNC(=O)[C@H](Cc3c[nH]c4ccccc34)NC(=O)[C@H](CCCNC(=N)N)NC(=O)[C@H]3CC[C@H](C3)NC2=O)cc(OC)c1OC [Compound 17Δ]
Permeability (%) ([1]; PAMPA): 17.17% | permeability (PAMPA) ([1]; PAMPA): 16% | inhibition of MV-4:11 cell proliferation, in words (MV-4:11 cells): did not inhibit cancer cell proliferation

COc1cc(CC(=O)N[C@H]2CSSC[C@@H](C(N)=O)NC(=O)[C@H](Cc3c[nH]c4ccccc34)NC(=O)[C@H](CCCNC(=N)N)NC(=O)[C@H]3CC[C@H](C3)NC2=O)cc(OC)c1OC [Compound 14] ({Phenylacetyl(3,4,5-triOMe)}-C[X1]RWC-NH2; disulfide 1-5; C-terminus assumed)
permeability (PAMPA) ([1]; PAMPA): < 1% | inhibition of WDR5-MLL interaction, in words (WDR5-MLL PPI; WDR5 50 nM): maintains full activity; also recorded: no association was detected; also recorded: comparable inhibitory potency | IC50 (WDR5-MLL PPI; 16 immobilized at 100 nM, WDR5 50 nM, lower detection limit 25 nM, read-out: IC50, inhibition of WDR5-MLL PPI (BLI competition)): < 25 nM

CCCCCC(C)C(=O)N[C@H]1CSCc2ccccc2CSCCNC(=O)[C@H](Cc2c[nH]c3ccccc23)NC(=O)[C@H](CCCNC(=N)N)NC(=O)[C@H]2CC[C@H](C2)NC1=O (stereo partly shown) [Compound 27]
permeability (PAMPA) ([1]; 100 µM, 18 h incubation, RT): 72% | displacement of MLL peptide from WDR5 (WDR5-MLL PPI): ≥ 50%

N=C(N)NCCC[C@@H]1NC(=O)[C@H]2CC[C@H](C2)NC(=O)[C@@H](NC(=O)CCc2ccc(Br)cc2)CSCc2ccccc2CSCCNC(=O)[C@H](Cc2c[nH]c3ccccc23)NC1=O [Compound 28]
displacement of MLL peptide from WDR5 (WDR5-MLL PPI): ≥ 50%

CC(=O)N[C@H]1CSSC[C@@H](C(N)=O)NC(=O)[C@H](Cc2c[nH]c3ccccc23)NC(=O)[C@H](CCCNC(=N)N)NC(=O)[C@H]2CC[C@H](C2)NC1=O [Compound 15] (Ac-C[X1]RWC-NH2; disulfide 1-5; C-terminus assumed)
inhibition of WDR5-MLL interaction, in words (WDR5-MLL PPI; WDR5 50 nM): reduced (yet not abolished) activity; also recorded: maintained partial inhibitory activity

COc1cc(CC(=O)N(C)[C@H]2CSCc3ccccc3CSCCNC(=O)[C@H](Cc3c[nH]c4ccccc34)NC(=O)[C@H](CCCNC(=N)N)NC(=O)[C@H]3CC[C@H](C3)NC2=O)cc(OC)c1OC [s5]
passive permeability (PAMPA), in words ([1]; PAMPA): reduced permeability | Binding (ratio to control) (WDR5-MLL PPI): 0.37

N=C(N)NCCC[C@@H]1NC(=O)[C@H]2CC[C@H](C2)NC(=O)[C@@H](NC(=O)c2ccc(Cl)s2)CSCc2ccccc2CSCCNC(=O)[C@H](Cc2c[nH]c3ccccc23)NC1=O [Compound 25]
permeability (PAMPA) ([1]; 100 µM, 18 h incubation, RT): 51% | displacement of MLL peptide from WDR5 (WDR5-MLL PPI): ≥ 50% | remaining at 24 h, 25 μM [2]: > 50%
